What follows are molecules tested on phenyl-para-quinone induced writhing (assay: phenyl-para-quinone writhing assay in mice (analgesia)). Conditions: Mus musculus, oral, read-out: Analgesic Activity ED50 (oral dose at which 50% of the phenyl-para-quinone induced writhing is inhibited).
Format: in vivo
Source text: Exptl. Biol. Med., 95,729 (1957)]. Presented in Table I is the analgesic effect of some of the compounds of the invention expressed as the oral dose at which 50% of the phenyl-para-quinone induced writhing is inhibited in the animals, i.e., the ED50 value.

Q: For `CC(=O)Nc1ccc(OC(=O)N(C)OCc2ccccc2)cc1` [4-(acetylamino)phenyl-N-benzyloxy-N-methyl carbamate], which ED50 is on record?
A: Its ED50 is 28.5 mg/kg.

Q: With `CC(=O)Nc1ccc(OC(=O)N(C)O)cc1` [4-(Acetylamino)phenyl-N-hydroxy-N-methyl carbamate] as the molecule, how does the ED50 read?
A: The ED50 was 32.3 mg/kg.

Q: How did the ED50 turn out when `CC(=O)Nc1ccc(O)cc1` [Acetaminophen, reference compound] was run?
A: The ED50 was 33.8 mg/kg.

Q: Which ED50 does the source give for `CC(=O)Nc1ccc(OC(=O)N(C)OC(C)=O)cc1` [4-(Acetylamino)phenyl-N-(acetyloxy)-N-methyl carbamate] here?
A: The ED50 was 42.7 mg/kg.
